We go through one compound from patent EP1287826A1, “A crystalline form of the free base of Amlodipine” (Pfizer Limited, priority 2001, dated 2003).

The structures appear in SMILES notation.

The format of the series is physicochemical. Here is the method:
The stability of crystalline amlodipine free base bulk and amlodipine free base tablets was assessed by storing samples for up to 6 or 12 weeks at 25°C/60%RH, 40°C/75%RH and 50°C/20%RH. Changes were monitored using a stability-indicating HPLC method. Results were calculated by normalised peak area (npa). Degradants were identified by comparison of their relative retention times against impurity standards.

For `CCOC(=O)C1=C(COCCN)NC(C)=C(C(=O)OC)C1c1ccccc1Cl` (stereo not shown) [crystalline amlodipine free base, 2-[(2-aminoethoxy)]-methyl-4-(2-chlorophenyl)-3-ethoxycarbonyl-5-methoxycarbonyl-6-methyl-1,4-dihydropyridine], the stability entry is given as “stability was demonstrated”.
